In US4839466A, “Insulin activity messengers” (The Rockefeller University, priority 1987, dated 1989):

How the values were obtained:
Assay type in all cases: biochemical, rat
Pyruvate Dehydrogenase = assay: Generation of an enzyme modulator from liver plasma membranes, pyruvate dehydrogenase readout
Procedure: (§1) Purification of the Enzyme Modulator. Bovine liver particulate fraction was prepared as described previously [Saltiel A. R., (1984) "Preparation and Characterization of Putative Insulin Mediators from Liver", METHODS IN DIABETES […], eds. J. Larner, S. Pohl, I:73]. Solutions were incubated in 5 mM ammonium bicarbonate, pH 7.4 with 10 nM insulin or 1 ug/ml PI-PLC as described in the figure legends. Following incubation, solutions were acidified to pH 4.0 and centrifuged at 35,000 x g for 20 minutes. Resulting supernatants were extracted with chloroform/methanol (2:1). The upper aqueous phase was aspirated and methanol was evaporated. Enzyme modulating activities were purified as described in Publication No. 6 listed earlier herein. Briefly, the extract was chromatographed on DEAE-Cellulose and eluted with 0.25M triethylamine (TEA)-formate, pH 3.75. This was followed by chromatography on C-18 reversed phase resin, in the same buffer, followed by Dowex 50W X-4 in 50 mM TEA-formate, pH 3.0. The resulting eluate was lyophilized, resuspended in 50 mM TEA-formate, pH 4.5 and sequentially chromatographed on QAE-Sephadex, SAX HPLC and a P-2 gel filtration column. Only the cyclic inositol phosphate derivative residing in Peak I was examined.
(§2) Enzyme Assays. The low Km cAMP PDE was assayed in a rat adipocyte particulate fraction as previously described [Saltiel, A. R., Steigerwalt,R. W., (1986) "Purification of Putative Insulin-Sensitive cAMP Phosphodiesterase or its Catalytic Domain From Rat Adipocytes", DIABETES, 35:698] and as later modified in Publication No. 6. Activity was linear throughout 20 min. and proportional to protein concentration. Only the low Km species of the enzyme was present in this fraction. PDH activity was assayed in liver mitoplasts after preincubation with ATP as previously described [Saltiel et al., (1982) PROC. NATL. ACAD. SCI. U.S.A., 79:3513.]. Adenylate cyclase activity was also assayed in purified adipocyte plasma membranes. For all enzyme assays, variability was less than 5%.
(§3) Liver membranes were treated with or without 10 nM insulin or 1 ug/ml PI-PLC for 10 min. at 37° C. Following cetrifugation, the supernatants were extracted and purified up to and including the SAX HPLC step. Purified extracts were added to enzyme assays at a final dilution of 1:10. Enzyme activities were assayed with no additions or after addition of purified extracts from control, insulin or PIPPLC treated membrane. Percent of basal activity is expressed in parentheses. ^1 expressed as pmoles/mg protein-min. ^2 expressed as nmoles/mg protein-min.

cAMP phosphodiesterase [1] = assay: Generation of an enzyme modulator from liver plasma membranes, cAMP phosphodiesterase readout
Procedure: as §1, §2, §3

Adenylate Cyclase = assay: Generation of an enzyme modulator from liver plasma membranes, adenylate cyclase readout
Procedure: as §1, §2, §3

cAMP phosphodiesterase [2] = assay: Generation of PDE messenger from liver membranes by insulin or PI-PLC; extracts assayed on cAMP phosphodiesterase
Procedure: These were generated from bovine liver particulate fractions by a modification of previously described methods. Particulate fraction was prepared from 100 g of bovine liver, and suspended in […] ammonium bicarbonate, pH 7.4. (Buffer A) at a final concentration of 2-4 mg protein/ml. This solution was incubated with […] for 10 min at 37° C., acidified to pH 4.0 with formic acid and sedimented at 45,000 g for 20 min. An equal volume of chloroform/methanol (2:1) was added to the supernatant, and the upper phase was aspirated and methanol was evaporated.
In the tests the results of which are tabulated above, liver membranes were treated as indicated for 10 min at 37° C., centrifuged and supernatants were extracted and purified up to and including the Dowex 50WX-4 step as described earlier herein under "Experimental Frocedures".
Partially purified extracts were assayed for ability to modulate cAMP phosphodiesterase. Basal activity was 56.2 pmoles/mg protein^-1 -min^-1.

[3] = membranes exposed to 10 nM insulin 10 min.

In the case of Insulin: monocomponent bovine insulin, the “Pyruvate Dehydrogenase activity” value (Pyruvate Dehydrogenase; extract as E41, no addition 1.77±0.07, control membranes 2.45±0.20) was 4.80±0.38 nmoles/mg protein-min, the “stimulation of PDH by the substance generated” value (Pyruvate Dehydrogenase; [3]) was 2-3 fold and the “cAMP Phosphodiesterase activity” value (cAMP phosphodiesterase [1]; extract of liver membranes treated with 10 nM insulin or 1 ug/ml PI-PLC 10 min. 37° C., purified to SAX HPLC, dilution 1:10, no addition 61.7±4.2, control membranes 78.5±5.6) was 146±3 pmoles/mg protein-min. The “stimulation of PDE by the substance generated” value (cAMP phosphodiesterase [1]; [3]) was 2-3 fold, the “Adenylate Cyclase activity” value (Adenylate Cyclase; extract as E41, no addition 272±14, control membranes 210±4) was 72.0±3.7 pmoles/mg protein-min and the “inhibition of adenylate cyclase by the substance generated” value (Adenylate Cyclase; [3]) was 75%. For the same substance, the “stimulation/increase of production of PDE modulating activity from membranes” value (cAMP phosphodiesterase [2]; after partial purification, PI-PLC 1.0 ug/ml) was 4 fold and the “PDE Activity” value (cAMP phosphodiesterase [2]; extract of liver membranes treated 10 min at 37° C. (1.0 nM Insulin, PI-PLC), purified up to Dowex 50WX-4, basal 56.2, untreated membranes 78.5) was 138.0 pmol mg protein^-1 min^-1.
